The values that follow come from US9265253B2, “Use of macrocyclic picolinamides as fungicides” (DOW AGROSCIENCES LLC, priority 2013, dated 2016).

Tested on in one data set: not given
Assay: not given
Settings: not given
`COc1ccnc(C(=O)N[C@H]2CCC[C@H](Cc3ccc(F)cc3F)[C@@H](OC(=O)c3ccco3)[C@H](C)OC2=O)c1OCOC(C)=O` [Compound F144] displayed a melting point of 76 to 80 °C.
In the case of `COc1ccnc(C(=O)N[C@H]2CCC[C@H](Cc3ccc(F)cc3F)[C@@H](OCC(C)C)[C@H](C)OC2=O)c1OCOC(C)=O` [Compound F145], the melting point lay in the range of 48 to 53 °C.
Still for that read-out and setting: the figure for `COc1ccnc(C(=O)N[C@H]2CCC[C@H](Cc3ccc(F)cc3F)[C@@H](OC(=O)c3ccco3)[C@H](C)OC2=O)c1OCOC(=O)C(C)C` [Compound F157] is 68 to 72 °C; for `CCOCC(=O)OCOc1c(OC)ccnc1C(=O)N[C@H]1CCC[C@H](Cc2ccc(F)cc2F)[C@@H](OC(=O)c2ccco2)[C@H](C)OC1=O` [Compound F193] it is 70 to 75 °C.

For a further data set, the system named is Blumeria graminis f. sp. hordei; Synonym: Erysiphe graminis f. sp. hordei. Description: Barley Powdery Mildew (ERYSGH) disease control. Conditions: 100 ppm, 1 Day Protectant. It counts as in vivo. The method, then: Technical grades of materials were dissolved in acetone, which were then mixed with nine volumes of water containing 110 ppm Triton X-100. The fungicide solutions were applied onto wheat seedlings using an automated booth sprayer to run-off. All sprayed plants were allowed to air dry prior to further handling. All fungicides were evaluated using the aforementioned method for their activity vs. all target diseases. Wheat leaf blotch and brown rust activity were also evaluated using track spray applications, in which case the fungicides were formulated as EC formulations, containing 0.1% Trycol 5941 in the spray solutions. Wheat plants (variety Yuma) were grown from seed in a greenhouse in 50% mineral soil/50% soil-less Metro mix until the first leaf was fully emerged, with 7-10 seedlings per pot. These plants were inoculated with an aqueous spore suspension of Septoria tritici either prior to or after fungicide treatments. After inoculation the plants were kept in 100% relative humidity (one day in a dark dew chamber followed by two to three days in a lighted dew chamber at 20° C.) to permit spores to germinate and infect the leaf. The plants were then transferred to a greenhouse set at 20° C. for disease to develop. When disease symptoms were fully expressed on the 1st leaves of untreated plants, infection levels were assessed on a scale of 0 to 100 percent disease severity. Percent disease control was calculated using the ratio of disease severity on treated plants relative to untreated plants. Barley seedlings (variety Harrington) were propagated in soil-less Metro mix, with each pot having 8 to 12 plants, and used in the test when first leaf was fully emerged. Test plants were inoculated by dusting with infected stock plants 24 hr after fungicide treatments. After inoculation the plants were kept in a greenhouse set at 20° C. for disease to develop. Fungicide formulation, application and disease assessment on the sprayed leaves followed the procedures as described in the Example A.
As for `COc1ccnc(C(=O)N[C@H]2CCC[C@H](Cc3ccc(F)cc3)[C@@H](OCC3CC3)[C@H](C)OC2=O)c1OCOC(C)=O` [Compound F96], the “Disease Control ERYSGH 1 DP” value is reported as “B (More than 0-Less than 80)”.
Regarding `COc1ccnc(C(=O)N[C@H]2CCC[C@H](Cc3ccc(F)cc3)[C@@H](OCC3CC3)[C@H](C)OC2=O)c1OCOC(C)=O` [Compound F98], the “Disease Control ERYSGH 1 DP” value is reported as “A (80-100)”.

The data set is the same for the next values; noted with them: Blumeria graminis, 24 h, 1 Day Protectant, read-out: Disease Control ERYSGH 1 DP.
Turning to `C=C[C@H]1CCC[C@H](NC(=O)c2nccc(OC)c2OCOC(C)=O)C(=O)O[C@@H](C)[C@@H]1Oc1ccccc1` [Compound F146], the pest or weed control at 100 ppm is 0 to 80%.
With `CCCO[C@@H]1[C@@H](Cc2ccccc2)CCC[C@H](NC(=O)c2nccc(OC)c2OC(=O)CCOC)C(=O)O[C@H]1C` [Compound F198], the pest or weed control at 100 ppm lay in the range of 80 to 100%.
Regarding `COc1ccnc(C(=O)N[C@H]2CCC[C@H](Cc3ccccc3)[C@@H](OCC(C)C)[C@H](C)OC2=O)c1OC(C)=O` [Compound F70], the pest or weed control at 100 ppm fell in the range of 80 to 100%.
`COc1ccnc(C(=O)N[C@H]2CCC[C@H](Cc3ccc(F)cc3F)[C@@H](OCC(C)C)[C@H](C)OC2=O)c1OCOC(C)=O` [Compound F145]: the pest or weed control at 100 ppm fell in the range of 80 to 100%.
For the molecule `COc1ccnc(C(=O)N[C@H]2CCC[C@H](CCBr)[C@@H](Oc3ccccc3)[C@H](C)OC2=O)c1OC(C)=O` [Compound F80], the pest or weed control at 100 ppm was in the range of 0 to 80%.
For `CCOCC(=O)OCOc1c(OC)ccnc1C(=O)N[C@H]1CCC[C@H](CCOC)[C@@H](Oc2ccccc2)[C@H](C)OC1=O` [Compound F183], the pest or weed control at 100 ppm lay in the range of 0 to 80%.
As for `COc1ccnc(C(=O)N[C@H]2CCC[C@H](CCF)[C@@H](OCC(C)C)[C@H](C)OC2=O)c1OCOC(C)=O` [Compound F128, ((2-(((3S,7R,8R,9S)-7-(2-fluoroethyl)-8-isobutoxy-9-methyl-2-oxooxonan-3-yl)carbamoyl)-4-methoxypyridin-3-yl)oxy)methyl acetate], the pest or weed control at 100 ppm lay within 0 to 80%.
With `COc1ccnc(C(=O)N[C@H]2CCC[C@H](Cc3ccc(F)cc3)[C@@H](OCC(C)C)[C@H](C)OC2=O)c1OCOC(C)=O` [Compound F102], the pest or weed control at 100 ppm is 0 to 80%.
Same read-out and setting: the figure for `CCOCC(=O)OCOc1c(OC)ccnc1C(=O)N[C@H]1CCC[C@H](CCF)[C@@H](OCC(C)C)[C@H](C)OC1=O` [Compound F181] is 0 to 80%; for `COc1ccnc(C(=O)N[C@H]2CCC[C@H](Cc3ccc(F)cc3)[C@@H](OCC3CC3)[C@H](C)OC2=O)c1OC(C)=O` [Compound F67] it is 80 to 100%.
Still for that read-out and setting: the figure for `CCO[C@@H]1[C@@H](Cc2ccccc2)CCC[C@H](NC(=O)c2nccc(OC)c2OC(C)=O)C(=O)O[C@H]1C` [Compound F87] is 80 to 100%; for `CCOCC(=O)OCOc1c(OC)ccnc1C(=O)N[C@H]1CCC[C@H](CC2CCCCC2)[C@@H](OCC(C)C)[C@H](C)OC1=O` [Compound F175] it is 80 to 100%.
Consider `CCCO[C@@H]1[C@@H](Cc2ccc(F)cc2)CCC[C@H](NC(=O)c2nccc(OC)c2OCOC(C)=O)C(=O)O[C@H]1C` [Compound F101], for which the pest or weed control at 100 ppm was in the range of 80 to 100%.
Take `COc1ccnc(C(=O)N[C@H]2CCC[C@H](CC(F)F)[C@@H](Oc3ccccc3)[C@H](C)OC2=O)c1OCOC(C)=O` [Compound F138]: the pest or weed control at 100 ppm was 0 to 80%.
Same read-out and setting: the figure for `CCOCC(=O)OCOc1c(OC)ccnc1C(=O)N[C@H]1CCC[C@H](Cc2ccc(F)cc2)[C@@H](OCC(C)C)[C@H](C)OC1=O` [Compound F168] is 80 to 100%; for `COc1ccnc(C(=O)N[C@H]2CCC[C@H](Cc3ccccc3)[C@@H](Oc3ccccc3)[C@H](C)OC2=O)c1OCOC(C)=O` [Compound F108] it is 0 to 80%; for `COc1ccnc(C(=O)N[C@H]2CCC[C@H](CC(F)F)[C@@H](Oc3ccccc3)[C@H](C)OC2=O)c1OC(C)=O` [Compound F82] it is 0 to 80%.
`CCOCC(=O)OCOc1c(OC)ccnc1C(=O)N[C@H]1CCC[C@H](Cc2ccc(F)cc2F)[C@@H](OC(=O)c2ccco2)[C@H](C)OC1=O` [Compound F193]: the pest or weed control at 100 ppm lay within 0 to 80%.
For the molecule `COc1ccnc(C(=O)N[C@H]2CCC[C@H](Cc3ccccc3)[C@@H](OCC3CC3)[C@H](C)OC2=O)c1OCOC(=O)C(C)C` [Compound F152], the pest or weed control at 100 ppm was in the range of 80 to 100%.
On to `CCCO[C@@H]1[C@@H](Cc2ccccc2)CCC[C@H](NC(=O)c2nccc(OC)c2OCOC(=O)COCC)C(=O)O[C@H]1C` [Compound F174], for which the pest or weed control at 100 ppm fell in the range of 80 to 100%.
The same measure, in the same setting: the figure for `CC[C@H]1CCC[C@H](NC(=O)c2nccc(OC)c2OC(C)=O)C(=O)O[C@@H](C)[C@@H]1Oc1ccccc1` [Compound F81] is 0 to 80%; for `COc1ccnc(C(=O)N[C@H]2CCC[C@H](Cc3ccccc3)[C@@H](OCC3CC3)[C@H](C)OC2=O)c1OCOC(C)=O` [Compound F107] it is 80 to 100%; for `CCCO[C@@H]1[C@@H](CCC(C)C)CCC[C@H](NC(=O)c2nccc(OC)c2OCOC(C)=O)C(=O)O[C@H]1C` [Compound F92] it is 0 to 80%.
With `COc1ccnc(C(=O)N[C@H]2CCC[C@H](CC3CCCCC3)[C@@H](OCC(C)C)[C@H](C)OC2=O)c1OCOC(C)=O` [Compound F113], the pest or weed control at 100 ppm is 80 to 100%.
For the molecule `CCCO[C@@H]1[C@@H](Cc2ccccc2)CCC[C@H](NC(=O)c2nccc(OC)c2OC(C)=O)C(=O)O[C@H]1C` [Compound F88], the pest or weed control at 100 ppm lay in the range of 80 to 100%.
As for `CCCO[C@@H]1[C@@H](Cc2ccc(F)cc2)CCC[C@H](NC(=O)c2nccc(OC)c2OCOC(=O)COCC)C(=O)O[C@H]1C` [Compound F167], the pest or weed control at 100 ppm was in the range of 80 to 100%.
Consider `CCCO[C@@H]1[C@@H](Cc2ccccc2)CCC[C@H](NC(=O)c2nccc(OC)c2OCOC(C)=O)C(=O)O[C@H]1C` [Compound F109], for which the pest or weed control at 100 ppm fell in the range of 80 to 100%.
`CCCO[C@@H]1[C@@H](CCC(C)C)CCC[C@H](NC(=O)c2nccc(OC)c2OC(C)=O)C(=O)O[C@H]1C` [Compound F64]: the pest or weed control at 100 ppm fell in the range of 80 to 100%.
The same measure, in the same setting: the figure for `COc1ccnc(C(=O)N[C@H]2CCC[C@H](CC3CCCC3)[C@@H](OCC3CC3)[C@H](C)OC2=O)c1OCOC(C)=O` [Compound F117] is 80 to 100%; for `CCOCC(=O)OCOc1c(OC)ccnc1C(=O)N[C@H]1CCC[C@H](Cc2ccccc2)[C@@H](OCC2CC2)[C@H](C)OC1=O` [Compound F173] it is 80 to 100%.
Consider `COCC[C@H]1CCC[C@H](NC(=O)c2nccc(OC)c2OCOC(C)=O)C(=O)O[C@@H](C)[C@@H]1Oc1ccccc1` [Compound F130], for which the pest or weed control at 100 ppm is 0 to 80%.
On the same count and under the same terms, the figure for `COCC[C@H]1CCC[C@H](NC(=O)c2nccc(OC)c2OC(C)=O)C(=O)O[C@@H](C)[C@@H]1Oc1ccccc1` [Compound F78] is 0 to 80%; for `C=C[C@H]1CCC[C@H](NC(=O)c2nccc(OC)c2OC(C)=O)C(=O)O[C@@H](C)[C@@H]1Oc1ccccc1` [Compound F86] it is 0 to 80%; for `CCOCC(=O)OCOc1c(OC)ccnc1C(=O)N[C@H]1CCC[C@H](Cc2ccc(F)cc2)[C@@H](OCC2CC2)[C@H](C)OC1=O` [Compound F164] it is 80 to 100%.
On the same count and under the same terms, the figure for `CCOCC(=O)OCOc1c(OC)ccnc1C(=O)N[C@H]1CCC[C@H](Cc2ccccc2)[C@@H](OCC(C)C)[C@H](C)OC1=O` [Compound F172] is 80 to 100%; for `COc1ccnc(C(=O)N[C@H]2CCC[C@H](Cc3ccccc3)[C@@H](OC3CCCC3)[C@H](C)OC2=O)c1OCOC(C)=O` [Compound F110] it is 80 to 100%.
`CCCO[C@@H]1[C@@H](CCC(C)C)CCC[C@H](NC(=O)c2nccc(OC)c2OCOC(=O)COCC)C(=O)O[C@H]1C` [Compound F161]: the pest or weed control at 100 ppm fell in the range of 80 to 100%.
